Columns and labels:
[1] = tested on: Bradykinin acetate (BK)-induced skin edema in mice; assay: Cutaneous edema: BK-induced plasma extravasation, Evans blue method (Experimental Groups IV); format: in vivo
Description: Male C57Bl/6 SPF mice (25±2 g, 6-week-old) were purchased from the animal house facilities at the São Paulo School of Medicine (Federal University of São Paulo, Brazil). They were group-housed in a temperature-controlled room at 22° C. with a 12/12-hour light/dark cycle, had free access to food and water and were allowed to acclimate to our local facility for one week before the start of the experimental procedures. The study agrees with the Ethical Principles for Animal Research established by the Brazilian College for Animal Experimentation (COBEA). According to the internal laboratory rules, euthanasia is performed if severe distress related to the test agents developed during the experiment. […] The vehicle for dissolution of the compounds was sterile saline solution (0.9% NaCl) containing 12.5% DMSO (Sigma Chemical Co., St. Louis, MO). The compound solutions were prepared at concentrations such that the administered dose per kg of body weight results from the intraperitoneal (i.p.) administration of 10 ml/kg of each of the solutions. Bradykinin acetate (BK; cat. B3259, Sigma Chemical Co., St. Louis, MO) and compound 48/80 (C48/80; cat. C2313, Sigma Chemical Co., St. […] Skin edema was assessed in mice according to the method previously described by Costa et al. (2006) and Yshii et al (2009). The mice were anesthetized with urethane (25% w/v, 10 ml/kg, i.p.), had their dorsal skin shaved, and thereafter i.p. treated with the vehicle/test compounds. Fifty-five minutes later, a volume of 100 μL of Evans blue dye solution (0.25% in sterile saline) was intravenously (i.v.) injected via the tail vein. Five minutes later, the BK and C48/80 were intradermally (i.d.) injected into the dorsal skin at a fixed volume of 50 μl using a randomized scheme. The same volume of Tyrode solution 50 μl was injected as a control. Thirty minutes later, a 1 ml blood sample was obtained via cardiac puncture and the mice were killed by urethane overdose followed by cervical dislocation. The blood samples were centrifuged at 6,000 g for 4 min to obtain the plasma. The dorsal skin was removed, and the injected sites were punched out using an 8 mm diameter cork borer. […] The dye was extracted from each piece of skin and plasma (100 μl) samples using formamide, and the absorbance of the resulting solutions was measured at 620 nm. The plasma extravasation due to each agent (expressed in μl/site) was calculated as the ratio between the absorbance of each respective skin piece, corrected by the blank value and plasma sample solutions, properly adjusted by the dilution factors. To homogenate data due to the variability of different group of animals (inter-group variations), edema data are expressed as the fold-change response relative to the mean Tyrode (control) response of each experiment.

[2] = tested on: compound 48/80 (C48/80)-induced skin edema in mice; assay: Cutaneous edema: C48/80-induced plasma extravasation, Evans blue method (Experimental Groups IV); format: in vivo; details: for C48/80-induced edema: 0.70 μmol/kg i.p. (0.30 mg/kg Bud, 0.36 mg/kg Bud 21-P); for reduction of C48/80-induced plasma extravasation: 2.32 μmol/kg i.p. (1.0 mg/kg Bud, 1.2 mg/kg Bud 21-P), 60 min before i.d. C48/80
Description: Male C57Bl/6 SPF mice (25±2 g, 6-week-old) were purchased from the animal house facilities at the São Paulo School of Medicine (Federal University of São Paulo, Brazil). They were group-housed in a temperature-controlled room at 22° C. with a 12/12-hour light/dark cycle, had free access to food and water and were allowed to acclimate to our local facility for one week before the start of the experimental procedures. The study agrees with the Ethical Principles for Animal Research established by the Brazilian College for Animal Experimentation (COBEA). According to the internal laboratory rules, euthanasia is performed if severe distress related to the test agents developed during the experiment.
In Protocol 4, Bud (at doses of 1.0 and 0.30 mg/kg) and Bud 21-P (at doses of 1.2 and 0.36 mg/kg) were administered on a molar base, these doses were equivalent to […] μmol/kg of each compound, respectively. The vehicle for dissolution of the compounds was sterile saline solution (0.9% NaCl) containing 12.5% DMSO (Sigma Chemical Co., St. Louis, MO). The compound solutions were prepared at concentrations such that the administered dose per kg of body weight results from the intraperitoneal (i.p.) administration of 10 ml/kg of each of the solutions.
Skin edema was assessed in mice according to the method previously described by Costa et al. (2006) and Yshii et al (2009). The mice were anesthetized with urethane (25% w/v, 10 ml/kg, i.p.), had their dorsal skin shaved, and thereafter i.p. treated with the vehicle/test compounds. Fifty-five minutes later, a volume of 100 μL of Evans blue dye solution (0.25% in sterile saline) was intravenously (i.v.) injected via the tail vein. Five minutes later, the BK and C48/80 were intradermally (i.d.) injected into the dorsal skin at a fixed volume of 50 μl using a randomized scheme. The same volume of Tyrode solution 50 μl was injected as a control. Thirty minutes later, a 1 ml blood sample was obtained via cardiac puncture and the mice were killed by urethane overdose followed by cervical dislocation. The blood samples were centrifuged at 6,000 g for 4 min to obtain the plasma. […] The dye was extracted from each piece of skin and plasma (100 μl) samples using formamide, and the absorbance of the resulting solutions was measured at 620 nm. The plasma extravasation due to each agent (expressed in μl/site) was calculated as the ratio between the absorbance of each respective skin piece, corrected by the blank value and plasma sample solutions, properly adjusted by the dilution factors. To homogenate data due to the variability of different group of animals (inter-group variations), edema data are expressed as the fold-change response relative to the mean Tyrode (control) response of each experiment.

[3] = 0.70 μmol/kg i.p. (0.30 mg/kg Bud, 0.36 mg/kg Bud 21-P)
[4] = 2.32 μmol/kg i.p. (1.0 mg/kg Bud, 1.2 mg/kg Bud 21-P), 60 min before i.d. BK, measured 30 min after

Compound	BK-induced plasma extravasation [1, 3]	BK-induced plasma extravasation [1, 4]	C48/80-induced edema [2]	reduction of C48/80-induced plasma extravasation [2]
CCCC1OC2CC3C4CCC5=CC(=O)C=CC5(C)C4C(O)CC3(C)C2(C(=O)COP(=O)(O)O)O1 (centres unmarked) [B, Budesonide 21-phosphate]	significantly reduced the BK response	abolished BK-induced response	significantly inhibited C48180-induced edema	approximately 50%
CCCC1OC2CC3C4CCC5=CC(=O)C=CC5(C)C4C(O)CC3(C)C2(C(=O)CO)O1 (stereo not drawn) [Bud, 11β,21-dihydroxy-16α,17α-(butylidenebis(oxy))pregna-1,4-diene-3.20-dione]	ineffective	abolished BK-induced response	ineffective	approximately 50%

Source: patent US12465614B2, “Budesonide 21-phosphate salts and pharmaceutical compositions containing the same” (GENETIC S.P.A., priority 2020, dated 2025)
